Test system: TRβ1 gene
Experiment: RT-PCR for TRβ1 transcript in breast cancer cell lines after 5-azaC treatment
Type: cell-based
Details: MCF7 breast cancer cell line
Text: The region of most common LOH in the experiments described in Example I include the region of the TRβ1 gene. Therefore, we evaluated TRβ1 gene expression in breast cancer cell lines by RT-PCR, using primers encompassing exons 4–7. The primers used for RT-PCR of the TRβ1 transcript were TRβ-F 5′ […] 3′ (forward) (SEQ ID NO:1) and TRβ-R 5′ TGAGCTCCCATTCCTCGTC 3′ (reverse) (SEQ ID NO:2). Presence of a TRβ1 transcript was indicated by the presence of a 500 bp RT-PCR product using template mRNA isolated from non-cancerous or breast cancer cell lines. As a control, corresponding GAPDH transcript levels for each sample was measured within the same PCR reaction mixture by amplifying a 250 bp fragment using the following primers 5′ […] 3′ (forward) (SEQ ID NO:3) and 5′ […] 3′ (reverse) (SEQ ID NO:4). […] Fluorescent in situ hybribization (FISH) analysis was carried out on the cells to determine the copy number of the TRβ1 gene. FISH data is reported as the percentage of cells in which TRβ1 copy number was fewer than the centromeric signal for chromosome 3. The breast cancer cell lines that were used in this study include DU4475, MDA435, SKBR3, MCF7, BT20, MDA157, MDA231, BT474, CAMA1 and T47D. All of these cell lines are available from American Type Culture Collection, Manassas, Va.

Nc1ncn([C@@H]2O[C@H](CO)[C@@H](O)[C@H]2O)c(=O)n1 [5-azaC]
RT-PCR for TRβ1, before versus after 5-aza C treatment: *RT-PCR for MCF7 was the same before and after 5-aza C treatment

— patent US7056663B2, “Prognostic methods for breast cancer” (California Pacific Medical Center, priority 2001, dated 2006)
